Values quoted from earlier work as cited in patent US20110275649A1, “Combination therapy for the prevention of statin induced diabetes” (Palmetto Pharmaceuticals LLC, priority 2010, published 2011).

Key:
[1] = compared with pravastatin
[2] = test system: carnitine palmitoyltransferase-1: CPT-1; conditions: in vitro studies; e.g. by inhibition of CPT-1
CYP3A4 = CYP3A4 (Homo sapiens, UniProt P08684)
late sodium channel = late sodium channel (Homo sapiens, UniProt Q14524)
[3] = JUPITER trial
[4] = test system: 3-keto-CoA-thiolase, or 3-KAT

Sequence of CYP3A4 (P08684 whole entry): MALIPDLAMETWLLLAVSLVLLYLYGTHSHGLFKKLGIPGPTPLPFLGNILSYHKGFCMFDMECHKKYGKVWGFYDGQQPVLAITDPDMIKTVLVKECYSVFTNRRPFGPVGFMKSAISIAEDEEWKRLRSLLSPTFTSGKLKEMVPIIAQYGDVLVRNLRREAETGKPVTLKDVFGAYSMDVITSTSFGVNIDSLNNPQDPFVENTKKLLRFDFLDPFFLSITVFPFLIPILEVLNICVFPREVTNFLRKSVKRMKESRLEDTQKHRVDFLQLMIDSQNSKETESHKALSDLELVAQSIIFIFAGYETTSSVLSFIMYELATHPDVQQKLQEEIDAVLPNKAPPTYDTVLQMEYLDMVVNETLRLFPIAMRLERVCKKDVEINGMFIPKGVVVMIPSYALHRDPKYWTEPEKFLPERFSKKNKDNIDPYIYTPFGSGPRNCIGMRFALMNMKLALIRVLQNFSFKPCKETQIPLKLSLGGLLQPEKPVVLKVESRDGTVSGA
Sequence of late sodium channel (Q14524 whole entry): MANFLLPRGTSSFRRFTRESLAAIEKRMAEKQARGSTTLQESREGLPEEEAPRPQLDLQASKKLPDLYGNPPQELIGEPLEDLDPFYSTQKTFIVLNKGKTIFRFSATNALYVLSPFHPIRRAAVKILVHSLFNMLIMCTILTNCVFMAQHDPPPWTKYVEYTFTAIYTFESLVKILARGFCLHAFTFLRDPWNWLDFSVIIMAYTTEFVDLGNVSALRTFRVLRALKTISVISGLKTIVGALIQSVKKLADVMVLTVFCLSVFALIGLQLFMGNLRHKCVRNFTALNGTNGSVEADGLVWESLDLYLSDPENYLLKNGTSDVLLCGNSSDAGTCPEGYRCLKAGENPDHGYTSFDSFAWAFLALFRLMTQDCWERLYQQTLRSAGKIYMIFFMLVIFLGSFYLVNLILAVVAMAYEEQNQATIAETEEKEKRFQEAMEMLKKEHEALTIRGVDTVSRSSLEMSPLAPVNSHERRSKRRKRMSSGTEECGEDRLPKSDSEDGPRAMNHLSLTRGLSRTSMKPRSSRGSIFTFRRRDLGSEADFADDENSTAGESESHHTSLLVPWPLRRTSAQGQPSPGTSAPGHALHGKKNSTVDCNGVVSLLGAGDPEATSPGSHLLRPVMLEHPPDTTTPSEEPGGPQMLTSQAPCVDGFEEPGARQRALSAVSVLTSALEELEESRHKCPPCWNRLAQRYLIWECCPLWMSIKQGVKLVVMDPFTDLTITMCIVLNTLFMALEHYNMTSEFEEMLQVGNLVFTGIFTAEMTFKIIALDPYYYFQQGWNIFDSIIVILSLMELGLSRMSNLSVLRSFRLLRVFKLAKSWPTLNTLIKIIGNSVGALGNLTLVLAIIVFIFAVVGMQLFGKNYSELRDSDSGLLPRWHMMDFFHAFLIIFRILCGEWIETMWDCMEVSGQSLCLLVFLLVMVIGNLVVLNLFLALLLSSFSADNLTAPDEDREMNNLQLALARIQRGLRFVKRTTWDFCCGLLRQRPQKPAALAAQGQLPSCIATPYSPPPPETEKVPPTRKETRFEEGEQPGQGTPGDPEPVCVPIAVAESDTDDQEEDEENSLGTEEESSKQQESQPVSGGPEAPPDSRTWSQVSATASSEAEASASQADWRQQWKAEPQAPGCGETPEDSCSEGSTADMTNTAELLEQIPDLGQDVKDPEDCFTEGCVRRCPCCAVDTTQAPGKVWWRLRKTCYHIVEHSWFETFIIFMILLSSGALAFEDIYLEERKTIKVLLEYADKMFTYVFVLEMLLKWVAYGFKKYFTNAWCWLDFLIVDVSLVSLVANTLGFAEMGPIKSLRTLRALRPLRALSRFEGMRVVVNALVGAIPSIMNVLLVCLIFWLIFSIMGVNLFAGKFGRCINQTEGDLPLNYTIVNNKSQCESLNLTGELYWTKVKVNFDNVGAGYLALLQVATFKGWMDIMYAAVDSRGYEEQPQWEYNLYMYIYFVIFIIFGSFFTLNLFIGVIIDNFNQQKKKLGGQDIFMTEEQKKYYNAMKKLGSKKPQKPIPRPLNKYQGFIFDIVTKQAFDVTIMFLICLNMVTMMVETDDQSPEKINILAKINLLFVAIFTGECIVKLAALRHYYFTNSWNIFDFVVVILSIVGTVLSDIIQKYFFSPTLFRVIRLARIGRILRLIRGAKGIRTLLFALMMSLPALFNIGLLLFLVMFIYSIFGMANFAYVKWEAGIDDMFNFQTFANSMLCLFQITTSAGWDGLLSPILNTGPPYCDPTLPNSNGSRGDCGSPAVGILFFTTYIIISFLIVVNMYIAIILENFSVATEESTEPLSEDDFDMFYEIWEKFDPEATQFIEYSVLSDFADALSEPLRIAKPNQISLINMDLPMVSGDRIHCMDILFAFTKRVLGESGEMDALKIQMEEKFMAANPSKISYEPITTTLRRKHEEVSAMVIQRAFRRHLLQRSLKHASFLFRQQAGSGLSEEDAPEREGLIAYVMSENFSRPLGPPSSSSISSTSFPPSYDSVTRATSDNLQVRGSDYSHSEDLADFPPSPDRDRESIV

CC(C)c1c(C(=O)Nc2ccccc2)c(-c2ccccc2)c(-c2ccc(F)cc2)n1CC[C@@H](O)C[C@@H](O)CC(=O)O [atorvastatin]
likelihood to induce diabetes [1]: much more likely to induce diabetes than pravastatin

C1CCC(C(CC2CCCCN2)C2CCCCC2)CC1 (stereo not drawn) [perhexiline]
myocardial fatty acid catabolism [2]: causes inhibition of myocardial fatty acid catabolism

O=C(O)C[C@H](O)C[C@H](O)/C=C/c1c(C2CC2)nc2ccccc2c1-c1ccc(F)cc1 [pitavastatin]
metabolism by CYP3A4 (CYP3A4): does not undergo metabolism by the 3A4 system

CC[C@H](C)C(=O)O[C@H]1C[C@H](O)C=C2C=C[C@H](C)[C@H](CC[C@@H](O)C[C@@H](O)CC(=O)O)[C@H]21 [pravastatin]
lipid / water solubility: water soluble

COc1ccccc1OCC(O)CN1CCN(CC(=O)Nc2c(C)cccc2C)CC1 (stereo not drawn) [ranolazine]
late sodium channel inhibition (late sodium channel): inhibits the late sodium channel | arrhythmogenic events from QT prolongation (QT interval; Merlin-TIMI 36): did not cause excess arrythmogenic events | QT interval (QT interval; in vivo): causes QT interval prolongation

CC(C)c1nc(N(C)S(C)(=O)=O)nc(-c2ccc(F)cc2)c1/C=C/[C@@H](O)C[C@@H](O)CC(=O)O [rosuvastatin]
diabetes in the group receiving the statin [3]: increase in diabetes

COc1ccc(CN2CCNCC2)c(OC)c1OC [trimetazidine]
inhibition of 3-KAT [4]: inhibition of the enzyme 3-keto-CoA-thiolase
